Assay results reported in patent EP4219453A1 (Sichuan Kelun-Biotech Biopharmaceutical Co., Ltd., priority 2020, dated 2022).

Key:
[1] = molecular target: T1, TGFβR1 (Homo sapiens, UniProt P36897); assay: In vitro enzymatic activity inhibition test (TGFβR1), ADP-Glo Kinase Detection Kit; format: biochemical; conditions: calculated from percent inhibition at 1000 nM, 100 nM, 10 nM
T1 sequence (P36897 34-503): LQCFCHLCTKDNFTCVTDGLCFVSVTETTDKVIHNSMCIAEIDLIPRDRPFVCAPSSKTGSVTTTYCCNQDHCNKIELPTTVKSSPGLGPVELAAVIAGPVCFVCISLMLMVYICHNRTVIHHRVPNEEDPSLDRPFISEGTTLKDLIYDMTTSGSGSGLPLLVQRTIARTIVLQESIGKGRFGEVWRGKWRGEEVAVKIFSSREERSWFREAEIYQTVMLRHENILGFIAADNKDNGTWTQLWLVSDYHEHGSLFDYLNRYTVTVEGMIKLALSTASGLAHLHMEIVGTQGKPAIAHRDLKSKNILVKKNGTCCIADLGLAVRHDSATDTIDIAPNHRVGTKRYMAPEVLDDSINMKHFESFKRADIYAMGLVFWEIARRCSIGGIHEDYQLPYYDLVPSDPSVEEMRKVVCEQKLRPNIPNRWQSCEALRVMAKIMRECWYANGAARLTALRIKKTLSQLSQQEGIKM
Protocol: Test Example 1: In vitro enzymatic activity inhibition test (TGFβR1).
(§1) Experimental method: According to the instructions of ADP-Glo™ Kinase Detection Kit (Promega), the inhibitory effect of the compounds of the present invention on the enzymatic activity of TGFβR1 was determined, and the steps were as follows: TGFβR1 enzyme were pre-incubated with different concentrations of test compounds (1000 nM, 100 nM, 10 nM) at 30°C for 30 min, TGFβR1 peptide and adenosine triphosphate (ATP) were added to initiate the reaction. The incubation was performed at 30°C for 3 h, followed by an addition of ADP-Glo™ reagent and incubated at room temperature for 90 min, kinase detection reagent was then added. Chemiluminescence signal values were detected after incubation at room temperature for another 30 min.
(§2) When the percent inhibition rate was between 30% and 80%, the median inhibitory concentration (IC50) or range of the compound was calculated according to the following formula: IC50 = X × (1 - percent inhibition rate (%)) / percent inhibition rate (%), wherein X is the concentration of the compound at which the inhibition rate is between 30% and 80%.

[2] = molecular target: TGFβR2 (Homo sapiens, UniProt P37173); assay: In vitro enzymatic activity inhibition test (TGFβR2), ADP-Glo Kinase Detection Kit; format: biochemical; conditions: MBP substrate, calculated from percent inhibition at 1000nM, 100nM, 10nM
TGFβR2, sequence (P37173 23-567): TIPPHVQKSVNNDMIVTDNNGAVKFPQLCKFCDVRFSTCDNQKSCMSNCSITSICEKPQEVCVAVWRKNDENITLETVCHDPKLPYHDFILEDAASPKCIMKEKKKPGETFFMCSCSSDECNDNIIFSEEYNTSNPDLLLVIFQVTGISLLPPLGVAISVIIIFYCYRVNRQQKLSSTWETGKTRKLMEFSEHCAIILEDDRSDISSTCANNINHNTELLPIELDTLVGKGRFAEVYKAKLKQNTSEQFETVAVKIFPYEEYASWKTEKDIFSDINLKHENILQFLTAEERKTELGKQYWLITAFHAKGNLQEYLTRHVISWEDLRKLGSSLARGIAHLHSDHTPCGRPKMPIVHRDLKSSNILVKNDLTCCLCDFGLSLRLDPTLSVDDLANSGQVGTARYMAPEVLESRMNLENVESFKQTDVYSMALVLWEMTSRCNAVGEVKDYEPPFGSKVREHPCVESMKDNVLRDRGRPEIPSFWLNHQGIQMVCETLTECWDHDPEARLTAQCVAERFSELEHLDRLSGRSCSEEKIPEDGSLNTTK
Protocol: Test Example 2: In vitro enzymatic activity inhibition test (TGFβR2).
as §1, with “TGFβR2” for “TGFβR1”, “(1000nM, 100nM, 10nM)” for “(1000 nM, 100 nM, 10 nM)”, “myelin basic protein (MBP)” for “TGFβR1 peptide”, “The chemiluminescence” for “Chemiluminescence”
as §2, with “percent inhibition was between” for “percent inhibition rate was between”

[3] = system: TGFβ/Smads signaling pathway in HEK293-SBE cells; assay: In vitro cell activity inhibition test, Bright-Glo luciferase reporter in HEK293-SBE cells; format: cell-based; conditions: TGFβ 0.5 ng/ml, luciferase reporter gene method
Protocol: Test Example 3: In vitro cell activity inhibition test
Experimental method: According to the instructions of Bright-Glo™ luciferase detection kit (Promega), the inhibitory effect of the compounds of the present invention on TGFβ/Smads signaling pathway in HEK293-SBE cells was determined. The steps were as follows: HEK293-SBE cells (Bps bioscience) were added to a 96-well plate (10% FBS medium), 30,000/well, and cultured overnight at 37°C and 5% CO2. The medium was changed to 0.5% FBS medium, and the test compound diluted in 0.5% FBS medium was added. The highest final concentration of the test compound was 10 µM with 4-fold dilution, and a total of 8 concentration gradients. After 4-5 hours of incubation, 10 µl of TGFβ was added. The final concentration of TGFβ was 0.5 ng/ml. 10 µl of medium added in replace of TGFβ was the negative control. In the blank control, no test compound was added, and TGFβ was added. Bright Glo reagent was added to each well, and the chemiluminescence signal value was read on a microplate reader.
The percent inhibition rates of the test compound at different concentrations were plotted against the compound concentrations, the curve was fitted according to the four-parameter model, and the IC50 value was calculated by the following formula: y = Min + (Max - Min) / (1 + (x / IC50) ^ (-Hillslope)), wherein: y is percentage inhibition rate; Max and Min are the maximum and minimum values of the fitted curve, respectively; x is the logarithmic concentration of compound; and Hillslope is the slope of the curve.

IC50 [1] [nM] | IC50 [2] [nM] | Structure (SMILES) | IC50 [3] [nM]
9.83 ± 4.79 | > 1000 | Cc1cccc(-n2nccc2-c2ccn3ncnc3c2)n1 [Example 2, 7-(1-(6-methylpyridin-2-yl)-1H-pyrazol-5-yl)-[1,2,4]triazolo[1,5-a]pyridine] | –
27.4 ± 4.89 | – | Cc1cc(CNc2cc(-c3ccc4ncsc4c3)n(-c3cccc(C)n3)n2)ccn1 [Example 9, 5-(benzo[d]thiazol-6-yl)-1-(6-methylpyridin-2-yl)-N-((2-methylpyridin-4-yl)methyl)-1H-pyrazol-3-amine] | 43.2 ± 2.54
43.8 ± 6.08 | > 1000 | Cc1cccc(-n2nccc2-c2ccn3nccc3c2)n1 [Example 3, 5-(1-(6-methylpyridin-2-yl)-1H-pyrazol-5-yl) pyrazolo[1,5-a]pyridine] | 29.1 ± 2.5
